{"source": "PubChem BioAssay (NCI)", "assay_in_all_cases": "NCI-60 cell line screen, 48 h", "key": {"TK-10 renal": {"test_system": "TK-10 renal"}, "M14 melanoma": {"test_system": "M14 melanoma"}, "EKVX NSCLC": {"test_system": "EKVX NSCLC"}, "DU-145 prostate": {"test_system": "DU-145 prostate"}, "SK-MEL-5 melanoma": {"test_system": "SK-MEL-5 melanoma"}, "MALME-3M melanoma": {"test_system": "MALME-3M melanoma"}, "U251 CNS": {"test_system": "U251 CNS"}, "OVCAR-3 ovarian": {"test_system": "OVCAR-3 ovarian"}, "HCC-2998 colon": {"test_system": "HCC-2998 colon"}, "HT29 colon": {"test_system": "HT29 colon"}}, "note": "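In this assay, cells in 96-well plates receive the compound at five concentrations for 48 hours. Endpoints are linearly interpolated between the surrounding concentrations. The concentration for 50% growth inhibition is given as GI50. Definition used: TGI = concentration required for complete inhibition of growth.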", "data": [{"smiles": "COC1/C=C\\OC2(C)Oc3c(C)c(O)c4c(O)c(c(/C=N\\OCCCc5ccccc5)c(O)c4c3C2=O)NC(=O)/C(C)=C\\C=C/C(C)C(O)C(C)C(O)C(C)C(OC(C)=O)C1C", "note": "(centres undefined)", "values": [{"measurement": "TGI", "setting": "TK-10 renal", "value": 8.47, "unit": "µM"}, {"measurement": "TGI", "setting": "M14 melanoma", "value": 6.76, "unit": "µM"}, {"measurement": "TGI", "setting": "EKVX NSCLC", "value": 17.7, "unit": "µM"}, {"measurement": "TGI", "setting": "DU-145 prostate", "value": 15.7, "unit": "µM"}, {"measurement": "TGI", "setting": "SK-MEL-5 melanoma", "value": 3.55, "unit": "µM"}, {"measurement": "TGI", "setting": "MALME-3M melanoma", "value": 12, "unit": "µM"}, {"measurement": "TGI", "setting": "U251 CNS", "value": 16, "unit": "µM"}, {"measurement": "TGI", "setting": "OVCAR-3 ovarian", "value": 9.61, "unit": "µM"}, {"measurement": "TGI", "setting": "HCC-2998 colon", "value": 25.6, "unit": "µM"}, {"measurement": "TGI", "setting": "HT29 colon", "value": 11.3, "unit": "µM"}]}, {"smiles": "CCN=C=NCCCN(C)C", "values": [{"measurement": "TGI", "setting": "TK-10 renal", "value": "> 100", "unit": "µM"}, {"measurement": "TGI", "setting": "M14 melanoma", "value": "> 100", "unit": "µM"}, {"measurement": "TGI", "setting": "EKVX NSCLC", "value": "> 100", "unit": "µM"}, {"measurement": "TGI", "setting": "DU-145 prostate", "value": "> 100", "unit": "µM"}, {"measurement": "TGI", "setting": "SK-MEL-5 melanoma", "value": "> 100", "unit": "µM"}, {"measurement": "TGI", "setting": "MALME-3M melanoma", "value": "> 100", "unit": "µM"}, {"measurement": "TGI", "setting": "U251 CNS", "value": "> 100", "unit": "µM"}, {"measurement": "TGI", "setting": "OVCAR-3 ovarian", "value": "> 100", "unit": "µM"}, {"measurement": "TGI", "setting": "HT29 colon", "value": "> 100", "unit": "µM"}]}, {"smiles": "CN1CCC(C(=O)NNc2ccccc2)CC1", "values": [{"measurement": "TGI", "setting": "TK-10 renal", "value": "> 89.2", "unit": "µM"}, {"measurement": "TGI", "setting": "M14 melanoma", "value": "> 88.4", "unit": "µM"}, {"measurement": "TGI", "setting": "EKVX NSCLC", "value": "> 100", "unit": "µM"}, {"measurement": "TGI", "setting": "SK-MEL-5 melanoma", "value": 45.6, "unit": "µM"}, {"measurement": "TGI", "setting": "MALME-3M melanoma", "value": 98.5, "unit": "µM"}, {"measurement": "TGI", "setting": "U251 CNS", "value": "> 100", "unit": "µM"}, {"measurement": "TGI", "setting": "OVCAR-3 ovarian", "value": "> 100", "unit": "µM"}, {"measurement": "TGI", "setting": "HCC-2998 colon", "value": 12.6, "unit": "µM"}, {"measurement": "TGI", "setting": "HT29 colon", "value": "> 100", "unit": "µM"}]}, {"smiles": "COc1ccc(-c2nn(-c3ccc(NC(=O)Nc4ccc(Cl)c(Cl)c4)cc3)cc2-c2ccncc2)cc1Cl", "values": [{"measurement": "GI50", "setting": "TK-10 renal", "value": 2.04, "unit": "µM"}, {"measurement": "TGI", "setting": "TK-10 renal", "value": "> 100", "unit": "µM"}, {"measurement": "GI50", "setting": "M14 melanoma", "value": 1.79, "unit": "µM"}, {"measurement": "TGI", "setting": "M14 melanoma", "value": 5.04, "unit": "µM"}, {"measurement": "GI50", "setting": "EKVX NSCLC", "value": 2.18, "unit": "µM"}, {"measurement": "TGI", "setting": "EKVX NSCLC", "value": "> 100", "unit": "µM"}, {"measurement": "GI50", "setting": "DU-145 prostate", "value": 3.97, "unit": "µM"}, {"measurement": "TGI", "setting": "DU-145 prostate", "value": "> 100", "unit": "µM"}, {"measurement": "GI50", "setting": "SK-MEL-5 melanoma", "value": 2.26, "unit": "µM"}, {"measurement": "TGI", "setting": "SK-MEL-5 melanoma", "value": 5.96, "unit": "µM"}, {"measurement": "GI50", "setting": "MALME-3M melanoma", "value": 2.47, "unit": "µM"}, {"measurement": "TGI", "setting": "MALME-3M melanoma", "value": 8.47, "unit": "µM"}, {"measurement": "GI50", "setting": "U251 CNS", "value": 1.36, "unit": "µM"}, {"measurement": "TGI", "setting": "U251 CNS", "value": "> 100", "unit": "µM"}, {"measurement": "GI50", "setting": "OVCAR-3 ovarian", "value": 2.64, "unit": "µM"}, {"measurement": "TGI", "setting": "OVCAR-3 ovarian", "value": "> 100", "unit": "µM"}, {"measurement": "GI50", "setting": "HCC-2998 colon", "value": 2.78, "unit": "µM"}, {"measurement": "TGI", "setting": "HCC-2998 colon", "value": "> 100", "unit": "µM"}, {"measurement": "GI50", "setting": "HT29 colon", "value": 2.55, "unit": "µM"}, {"measurement": "TGI", "setting": "HT29 colon", "value": "> 100", "unit": "µM"}]}, {"smiles": "c1ccc(-n2cnnc2-c2nsc3ccccc23)cc1", "values": [{"measurement": "TGI", "setting": "TK-10 renal", "value": "> 100", "unit": "µM"}, {"measurement": "TGI", "setting": "M14 melanoma", "value": "> 100", "unit": "µM"}, {"measurement": "TGI", "setting": "EKVX NSCLC", "value": "> 100", "unit": "µM"}, {"measurement": "TGI", "setting": "SK-MEL-5 melanoma", "value": "> 100", "unit": "µM"}, {"measurement": "TGI", "setting": "U251 CNS", "value": "> 100", "unit": "µM"}, {"measurement": "TGI", "setting": "OVCAR-3 ovarian", "value": "> 100", "unit": "µM"}, {"measurement": "TGI", "setting": "HCC-2998 colon", "value": "> 100", "unit": "µM"}, {"measurement": "TGI", "setting": "HT29 colon", "value": "> 100", "unit": "µM"}]}, {"smiles": "C=C1CC23CCC4C(C)(C(=O)O)CCCC4(C)C2CCC1C3", "note": "(centres undefined)", "values": [{"measurement": "TGI", "setting": "TK-10 renal", "value": "> 100", "unit": "µM"}, {"measurement": "TGI", "setting": "M14 melanoma", "value": "> 100", "unit": "µM"}, {"measurement": "TGI", "setting": "EKVX NSCLC", "value": 75.5, "unit": "µM"}, {"measurement": "TGI", "setting": "DU-145 prostate", "value": "> 100", "unit": "µM"}, {"measurement": "TGI", "setting": "MALME-3M melanoma", "value": "> 100", "unit": "µM"}, {"measurement": "TGI", "setting": "U251 CNS", "value": "> 100", "unit": "µM"}, {"measurement": "TGI", "setting": "OVCAR-3 ovarian", "value": "> 100", "unit": "µM"}, {"measurement": "TGI", "setting": "HCC-2998 colon", "value": 78.6, "unit": "µM"}, {"measurement": "TGI", "setting": "HT29 colon", "value": "> 100", "unit": "µM"}]}, {"smiles": "O=C(O)CC(C(=O)O)C1c2ccccc2-c2ccccc21", "note": "(centres undefined)", "values": [{"measurement": "TGI", "setting": "TK-10 renal", "value": "> 100", "unit": "µM"}, {"measurement": "TGI", "setting": "M14 melanoma", "value": "> 100", "unit": "µM"}, {"measurement": "TGI", "setting": "EKVX NSCLC", "value": "> 100", "unit": "µM"}, {"measurement": "TGI", "setting": "DU-145 prostate", "value": "> 100", "unit": "µM"}, {"measurement": "TGI", "setting": "SK-MEL-5 melanoma", "value": "> 100", "unit": "µM"}, {"measurement": "TGI", "setting": "MALME-3M melanoma", "value": "> 100", "unit": "µM"}, {"measurement": "TGI", "setting": "U251 CNS", "value": "> 100", "unit": "µM"}, {"measurement": "TGI", "setting": "OVCAR-3 ovarian", "value": "> 100", "unit": "µM"}, {"measurement": "TGI", "setting": "HCC-2998 colon", "value": "> 100", "unit": "µM"}, {"measurement": "TGI", "setting": "HT29 colon", "value": "> 100", "unit": "µM"}]}, {"smiles": "COc1cc(C(C)(C)C)cc(OC)c1C(O)(c1c(OC)cc(C(C)(C)C)cc1OC)c1c(OC)cc(C(C)(C)C)cc1OC", "values": [{"measurement": "GI50", "setting": "M14 melanoma", "value": 0.381, "unit": "µM"}, {"measurement": "TGI", "setting": "M14 melanoma", "value": 1.13, "unit": "µM"}, {"measurement": "GI50", "setting": "SK-MEL-5 melanoma", "value": 0.236, "unit": "µM"}, {"measurement": "TGI", "setting": "SK-MEL-5 melanoma", "value": 0.552, "unit": "µM"}, {"measurement": "GI50", "setting": "MALME-3M melanoma", "value": 0.234, "unit": "µM"}, {"measurement": "TGI", "setting": "MALME-3M melanoma", "value": 0.683, "unit": "µM"}, {"measurement": "GI50", "setting": "U251 CNS", "value": 0.0636, "unit": "µM"}, {"measurement": "TGI", "setting": "U251 CNS", "value": 1.23, "unit": "µM"}, {"measurement": "GI50", "setting": "OVCAR-3 ovarian", "value": 0.278, "unit": "µM"}, {"measurement": "TGI", "setting": "OVCAR-3 ovarian", "value": 0.894, "unit": "µM"}, {"measurement": "GI50", "setting": "HCC-2998 colon", "value": 0.429, "unit": "µM"}, {"measurement": "TGI", "setting": "HCC-2998 colon", "value": 1.36, "unit": "µM"}, {"measurement": "GI50", "setting": "HT29 colon", "value": 0.224, "unit": "µM"}, {"measurement": "TGI", "setting": "HT29 colon", "value": 0.877, "unit": "µM"}]}, {"smiles": "O=Nc1ccc(O)c2ncccc12", "values": [{"measurement": "TGI", "setting": "TK-10 renal", "value": 28.2, "unit": "µM"}, {"measurement": "TGI", "setting": "M14 melanoma", "value": 20.7, "unit": "µM"}, {"measurement": "TGI", "setting": "EKVX NSCLC", "value": 5.8, "unit": "µM"}, {"measurement": "TGI", "setting": "DU-145 prostate", "value": 65.9, "unit": "µM"}, {"measurement": "TGI", "setting": "SK-MEL-5 melanoma", "value": 19.7, "unit": "µM"}, {"measurement": "TGI", "setting": "MALME-3M melanoma", "value": 25.6, "unit": "µM"}, {"measurement": "TGI", "setting": "U251 CNS", "value": 14.5, "unit": "µM"}, {"measurement": "TGI", "setting": "OVCAR-3 ovarian", "value": 12.4, "unit": "µM"}, {"measurement": "TGI", "setting": "HCC-2998 colon", "value": 31.1, "unit": "µM"}, {"measurement": "TGI", "setting": "HT29 colon", "value": 34.6, "unit": "µM"}]}]}
